Results from patent publication US20180298024A1, “CORTISTATIN ANALOGS AND USES THEREOF” (President and Fellows of Harvard College, priority 2015, published 2018).
Several values for one entry are separate records, joined by “and”; a condition that tells them apart may be missing. Identical values can stand only once.

Key:
Opiate μ(OP3, MOP) = biological target: T1, Opiate μ(OP3, MOP) (Homo sapiens, UniProt P35372); test: Panlab assay, Opiate μ(OP3, MOP); format: binding
T1 construct: Eurofins Panlabs
Procedure: Compounds A, B, C, and D were tested in Panlab assays to evaluate potential off-target activity using standard assay kits. Methods employed in these studies have been adapted from the scientific literature to maximize reliability and reproducibility.
IC50 values were determined by a non-linear, least squares regression analysis using MathIQ™ (ID Business Solutions Ltd., UK). […] Where presented, the Hill coefficient (nH), defining the slope of the competitive binding curve, was calculated using MathIQ™.

MUSK = biological target: T2, MUSK (Homo sapiens, UniProt O15146); test: 33PanQinase radiometric kinase assay, MUSK; format: biochemical
T2 construct: purchased ProQinase; host or cells: Sf9 insect cells or E. coli
T2 sequence (O15146 24-869): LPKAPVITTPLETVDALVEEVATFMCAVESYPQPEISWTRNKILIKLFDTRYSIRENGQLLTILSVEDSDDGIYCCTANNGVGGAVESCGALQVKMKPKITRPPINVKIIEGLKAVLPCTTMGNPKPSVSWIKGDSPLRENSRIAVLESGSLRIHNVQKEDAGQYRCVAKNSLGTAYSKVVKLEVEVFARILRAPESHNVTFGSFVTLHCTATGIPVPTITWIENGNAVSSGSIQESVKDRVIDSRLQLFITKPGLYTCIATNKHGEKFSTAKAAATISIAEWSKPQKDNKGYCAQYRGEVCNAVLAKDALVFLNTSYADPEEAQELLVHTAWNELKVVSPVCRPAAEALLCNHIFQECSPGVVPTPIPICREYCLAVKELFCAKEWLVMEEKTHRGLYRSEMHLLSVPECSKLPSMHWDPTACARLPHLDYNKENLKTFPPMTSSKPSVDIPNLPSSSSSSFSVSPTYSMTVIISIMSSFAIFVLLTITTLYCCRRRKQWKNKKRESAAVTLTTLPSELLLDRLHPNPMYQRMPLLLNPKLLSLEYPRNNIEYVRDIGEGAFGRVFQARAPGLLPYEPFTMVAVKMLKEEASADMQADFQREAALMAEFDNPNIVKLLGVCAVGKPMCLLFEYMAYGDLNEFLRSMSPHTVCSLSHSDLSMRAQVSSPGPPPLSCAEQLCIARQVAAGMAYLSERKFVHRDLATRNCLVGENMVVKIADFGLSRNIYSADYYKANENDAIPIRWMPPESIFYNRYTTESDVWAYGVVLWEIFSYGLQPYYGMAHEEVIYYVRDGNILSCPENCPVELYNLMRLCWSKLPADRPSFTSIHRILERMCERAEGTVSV
Procedure: (§1) A radiometric protein kinase assay (33PanQinase Activity Assay) was used for measuring the kinase activity of the 320 protein kinases. All kinase assays were performed in 96-well FlashPlates™ from Perkin Elmer (Boston, Mass., USA) in a 50 μl reaction volume. The reaction cocktail was pipetted in 4 steps in the following order: • 1. 10 μl of non-radioactive ATP solution (in H2O) • 2. 25 μl of assay buffer/[γ-33P]-ATP mixture • 3. 5 μl of test sample in 10% DMSO • 4. 10 μl of enzyme/substrate mixture
(§2) All PKC assays (except the PKC-mu and the PKC-nu assay) additionally contained 1 mM CaCl2, 4 mM EDTA, 5 μg/ml phosphatidylserine and 1 μg/ml 1,2-dioleyl-glycerol.
The CAMKID, CAMK2A, CAMK2B, CAMK2D, CAMK4, CAMKK1, CAMKK2, DAPK2, EEF2K, MYLK, MYLK2 and MYLK3 assays additionally contained 1 μg/ml Calmodulin and 0.5 mM CaCl2). The PRKG1 and PRKG2 assays additionally contained 1 μM cGMP. The DNA-PK assay additionally contained 2.5 μg/ml DNA. The protein kinase reaction cocktails were incubated at 30° C. for 60 minutes. The reaction was stopped with 50 μl of 2% (v/v) H3PO4, plates were aspirated and washed two times with 200 μl 0.9% (w/v) NaCl. Incorporation of 33Pi (counting of “cpm”) was determined with a microplate scintillation counter (Microbeta, Wallac). All protein kinase assays were performed with a BeckmanCoulter Biomek 2000/SL robotic system.
All protein kinases provided by ProQinase were expressed in Sf9 insect cells or in E. coli as recombinant GST-fusion proteins or His-tagged proteins, either as full-length or enzymatically active fragments. All kinases were produced from human cDNAs and purified by either GSHaffinity chromatography or immobilized metal. Affinity tags were removed from a number of kinases during purification. […]
(§3) For each kinase, the median value of the cpm of three wells was defined as “low control” (n=3). This value reflects unspecific binding of radioactivity to the plate in the absence of a protein kinase but in the presence of the substrate. […] The residual activity (in %) for each compounds well was calculated by using the following formula: […]

ALK = biological target: T3, ALK (Homo sapiens, UniProt Q9UM73); test: 33PanQinase radiometric kinase assay, ALK; format: biochemical; details: in vitro, read-out: percent inhibition of ALK
T3 construct: purchased ProQinase; host or cells: Sf9 insect cells or E. coli
Procedure: as §1, §2
The CAMKID, CAMK2A, CAMK2B, CAMK2D, CAMK4, CAMKK1, CAMKK2, DAPK2, EEF2K, MYLK, MYLK2 and MYLK3 assays additionally contained 1 μg/ml Calmodulin and 0.5 mM CaCl2). The PRKG1 and PRKG2 assays additionally contained 1 μM cGMP. The DNA-PK assay additionally contained 2.5 μg/ml DNA. […] Incorporation of 33Pi (counting of “cpm”) was determined with a microplate scintillation counter (Microbeta, Wallac). […]
as §3

T1 sequence (P35372 whole entry): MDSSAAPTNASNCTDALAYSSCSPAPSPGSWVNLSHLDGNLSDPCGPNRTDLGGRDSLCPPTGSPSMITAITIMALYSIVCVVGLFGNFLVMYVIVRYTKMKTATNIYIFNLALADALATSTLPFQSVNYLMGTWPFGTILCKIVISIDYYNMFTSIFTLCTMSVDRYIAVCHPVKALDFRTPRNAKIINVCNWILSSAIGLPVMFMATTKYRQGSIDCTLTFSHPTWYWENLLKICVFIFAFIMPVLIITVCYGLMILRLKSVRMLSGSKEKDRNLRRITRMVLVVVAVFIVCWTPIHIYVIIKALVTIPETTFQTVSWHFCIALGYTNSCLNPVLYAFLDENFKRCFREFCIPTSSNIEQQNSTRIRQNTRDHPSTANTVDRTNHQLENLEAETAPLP
T3 sequence (Q9UM73 19-1620): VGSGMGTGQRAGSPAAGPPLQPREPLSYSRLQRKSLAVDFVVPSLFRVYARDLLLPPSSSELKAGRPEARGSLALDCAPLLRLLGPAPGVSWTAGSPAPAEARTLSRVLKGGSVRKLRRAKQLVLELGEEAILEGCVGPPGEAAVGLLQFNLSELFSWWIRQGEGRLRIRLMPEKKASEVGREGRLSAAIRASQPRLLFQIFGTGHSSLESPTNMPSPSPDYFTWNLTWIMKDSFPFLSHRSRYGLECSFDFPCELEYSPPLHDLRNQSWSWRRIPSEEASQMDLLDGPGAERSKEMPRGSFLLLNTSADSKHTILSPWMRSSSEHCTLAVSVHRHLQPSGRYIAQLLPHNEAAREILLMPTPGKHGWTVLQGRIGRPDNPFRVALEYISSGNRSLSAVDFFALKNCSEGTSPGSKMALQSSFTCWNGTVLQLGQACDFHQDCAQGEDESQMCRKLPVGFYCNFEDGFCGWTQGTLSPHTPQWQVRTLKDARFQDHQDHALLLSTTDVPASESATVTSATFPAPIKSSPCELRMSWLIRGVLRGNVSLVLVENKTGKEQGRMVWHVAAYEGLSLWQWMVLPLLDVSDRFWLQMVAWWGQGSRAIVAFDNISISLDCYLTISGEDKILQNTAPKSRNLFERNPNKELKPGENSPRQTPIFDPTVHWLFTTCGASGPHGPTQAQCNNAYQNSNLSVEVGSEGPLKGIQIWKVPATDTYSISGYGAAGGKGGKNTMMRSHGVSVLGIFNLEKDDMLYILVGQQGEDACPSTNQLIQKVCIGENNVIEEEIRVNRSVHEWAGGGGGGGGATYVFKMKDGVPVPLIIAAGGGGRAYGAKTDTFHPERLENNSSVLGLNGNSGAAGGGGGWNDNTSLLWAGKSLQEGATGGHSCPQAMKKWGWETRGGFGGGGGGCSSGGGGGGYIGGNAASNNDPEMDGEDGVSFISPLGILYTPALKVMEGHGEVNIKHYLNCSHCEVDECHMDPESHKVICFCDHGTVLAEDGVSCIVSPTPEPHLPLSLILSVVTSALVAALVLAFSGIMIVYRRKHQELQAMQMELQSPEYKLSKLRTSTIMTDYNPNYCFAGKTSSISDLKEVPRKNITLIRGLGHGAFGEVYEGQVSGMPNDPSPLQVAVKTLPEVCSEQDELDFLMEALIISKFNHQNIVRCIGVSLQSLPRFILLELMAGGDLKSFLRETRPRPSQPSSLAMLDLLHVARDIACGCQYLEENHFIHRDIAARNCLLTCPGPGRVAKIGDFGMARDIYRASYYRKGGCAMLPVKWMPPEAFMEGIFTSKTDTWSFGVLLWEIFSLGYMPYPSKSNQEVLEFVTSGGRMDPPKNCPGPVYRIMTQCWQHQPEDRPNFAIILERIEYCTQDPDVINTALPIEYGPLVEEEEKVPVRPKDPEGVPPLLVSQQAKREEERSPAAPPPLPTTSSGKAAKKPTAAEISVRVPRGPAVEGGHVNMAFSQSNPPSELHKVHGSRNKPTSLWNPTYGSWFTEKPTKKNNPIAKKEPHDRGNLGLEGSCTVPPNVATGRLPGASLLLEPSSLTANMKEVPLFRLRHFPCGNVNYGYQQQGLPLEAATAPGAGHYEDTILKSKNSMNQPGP

C[C@]12CC=C3C=C4CC[C@@H](O)C[C@]45CC[C@]3(O5)[C@@H]1CC[C@@H]2c1ccc2ccncc2c1 [Compound A, (3S,3aR,9R,10aR,12aS,12bR)-3-(isoquinolin-7-yl)-3a-methyl-1,2,3,3a,4,7,8,9,10,11,12,12b-dodecahydro-10a,12a-epoxybenzo[4,5]cyclohepta[1,2-e]inden-9-ol]
IC50 (Opiate μ(OP3, MOP)): 5.73 µM | nH (Hill coefficient), Opiate μ(OP3, MOP) (Opiate μ(OP3, MOP)): 0.90 | Ki (Opiate μ(OP3, MOP); Cheng and Prusoff): 2.33 µM | inhibition at 1 µM (MUSK; 1 μM, 2 replicates, read-out: average percent inhibition of MUSK): > 50% | percent inhibition of MUSK, replicates (MUSK; 1 μM, single replicates): 36% and 111% | inhibition of MUSK upon retesting (MUSK; up to 10 μM): not inhibited | inhibition at 1 µM (ALK): < 10%
